In patent publication US10730889B2, “Amido spirocyclic amide and sulfonamide derivatives” (Forma TM, LLC, priority 2012, dated 2020):

Test system: A2780 cells
Test: In-vitro cell proliferation assay (SRB, 72 hours)
Type: cell-based
Conditions: Homo sapiens, A2780, 72 h, A2780 cells, 72 hours, SRB; read-out: Cell Proliferation (IC50)

IC50 [µM]	Structure (SMILES)
0.931	O=C(NCC1CC12CCN(C(=O)CCN1CCOCC1)CC2)c1cc2ccncc2o1 (centres unmarked) [Example 65, N-[[6-(3-morpholinopropanoyl)-6-azaspiro[2.5]octan-2-yl]methyl]furo[2,3-c]pyridine-2-carboxamide]
2	O=C(NCC1CC12CCN(C(=O)C1CCS(=O)(=O)C1)CC2)c1cc2ccncc2o1 (centres unmarked) [Example 66, N-[[6-(1,1-dioxothiolane-3-carbonyl)-6-azaspiro[2.5]octan-2-yl]methyl]furo[2,3-c]pyridine-2-carboxamide]
0.193	Cc1cc(C)n(CC(=O)N2CCC3(CC2)CC3CNC(=O)c2cc3ccncc3o2)n1 (centres unmarked) [Example 67, N-[[6-[2-(3,5-dimethylpyrazol-1-yl)acetyl]-6-azaspiro[2.5]octan-2-yl]methyl]furo[2,3-c]pyridine-2-carboxamidc]
0.414	CC(=O)N1CCCC1C(=O)N1CCC2(CC1)CC2CNC(=O)c1cc2ccncc2o1 (centres unmarked) [Example 68, N-[[6-(1-acetylpyrrolidine-2-carbonyl)-6-azaspiro[2.5]octan-2-yl]methyl]furo[2,3-c]pyridine-2-carboxamide]
0.194	CS(=O)(=O)c1ccccc1C(=O)N1CCC2(CC1)CC2CNC(=O)c1cc2ccncc2o1 (centres unmarked) [Example 69, N-[[6-(2-methylsulfonylbenzoyl)-6-azaspiro[2.5]octan-2-yl]methyl]furo[2,3-c]pyridine-2-carboxamide]
0.492	O=C(NCC1CC12CCN(C(=O)c1cccc(-n3cnnc3)c1)CC2)c1cc2ccncc2o1 (centres unmarked) [Example 70, N-[[6-[3-(1,2,4-triazol-4-yl)benzoyl]-6-azaspiro[2.5]octan-2-yl]methyl]furo[2,3-c]pyridine-2-carboxamide]
0.0481	CC(=O)Nc1ccc(C(=O)N2CCC3(CC2)CC3CNC(=O)c2cc3ccncc3o2)cc1 (centres unmarked) [Example 72, N-[[6-(4-acetamidobenzoyl)-6-azaspiro[2.5]octan-2-yl]methyl]furo[2,3-c]pyridine-2-carboxamide]
0.0258	CS(=O)(=O)N1CCCC(C(=O)N2CCC3(CC2)CC3CNC(=O)c2cc3ccncc3o2)C1 (centres unmarked) [Example 73, N-[[6-(1-methylsulfonylpiperidine-3-carbonyl)-6-azaspiro[2.5]octan-2-yl]methyl]furo[2,3-c]pyridine-2-carboxamide]
0.169	CS(=O)(=O)N1CCC(C(=O)N2CCC3(CC2)CC3CNC(=O)c2cc3ccncc3o2)CC1 (centres unmarked) [Example 74, N-[[6-(1-methylsulfonylpiperidine-4-carbonyl)-6-azaspiro[2.5]octan-2-yl]methyl]furo[2,3-c]pyridine-2-carboxamide]
0.0809	CC(C(=O)N1CCC2(CC1)CC2CNC(=O)c1cc2ccncc2o1)N1CCOCC1 (centres unmarked) [Example 75, N-[[6-(2-morpholinopropanoyl)-6-azaspiro[2.5]octan-2-yl]methyl]furo[2,3-c]pyridine-2-carboxamide]
0.228	CS(=O)(=O)N1CCCC1C(=O)N1CCC2(CC1)CC2CNC(=O)c1cc2ccncc2o1 (centres unmarked) [Example 76, N-[[6-(1-methylsulfonylpyrrolidine-2-carbonyl)-6-azaspiro[2.5]octan-2-yl]methyl]furo[2,3-c]pyridine-2-carboxamide]
1.15	O=C(NCC1CC12CCN(C(=O)CC1NC(=O)c3ccccc31)CC2)c1cc2ccncc2o1 (centres unmarked) [Example 77, N-[[6-[2-(3-oxoisoindolin-1-yl)acetyl]-6-azaspiro[2.5]octan-2-yl]methyl]furo[2,3-c]pyridine-2-carboxamide]
2	NC(=O)N1CCC(C(=O)N2CCC3(CC2)CC3CNC(=O)c2cc3ccncc3o2)CC1 (centres unmarked) [Example 78, N-[[6-(1-carbamoylpiperidme-4-carbonyl)-6-azaspiro[2.5]octan-2-y]methyl]furo(2,3-c]pyridine-2-carboxamide]
2	NC(=O)N1CCCC(C(=O)N2CCC3(CC2)CC3CNC(=O)c2cc3ccncc3o2)C1 (centres unmarked) [Example 79, N-[[6-(1-carbamoylpiperidine-3-carbonyl)-6-azaspiro[2.5]octan-2-yl]methyl]furo[2,3-c]pyridine-2-carboxamide]
1.34	O=C(NCC1CC12CCN(C(=O)CC1CCS(=O)(=O)C1)CC2)c1cc2ccncc2o1 (centres unmarked) [Example 80, N-[[6-[2-(1,1-dioxothiolan-3-yl)acetyl]-6-azaspiro[2.5]octan-2-yl]methyl]furo[2,3-c]pyridine-2-carboxamide]
2	O=C(NCC1CC12CCN(C(=O)Cn1ccc(=O)[nH]c1=O)CC2)c1cc2ccncc2o1 (centres unmarked) [Example 81, N-[[6-[2-(2,4-dioxopyrimidin-1-yl)acetyl]-6-azaspiro[2.5]octan-2-yl]methyl]furo[2,3-c]pyridine-2-carboxamide]
0.71	CC(=O)N1CCC(C(=O)N2CCC3(CC2)CC3CNC(=O)c2cc3ccncc3o2)CC1 (centres unmarked) [Example 82, N-[[6-(1-acetylpiperidine-4-carbonyl)-6-azaspiro[2.5]octan-2-yl]methyl]furo[2,3-c]pyridine-2-carboxamide]
1.08	O=C(NCC1CC12CCN(C(=O)c1ccc(Cn3cnnn3)cc1)CC2)c1cc2ccncc2o1 (centres unmarked) [Example 83, N-[[6-[4-(tetrazol-1-ylmethyl)benzoyl]-6-azaspiro[2.5]octan-2-yl]methyl]furo[2,3-c]pyridine-2-carboxamide]

IC50 [µM]	Structure (SMILES)
0.185	CS(=O)(=O)Nc1ccc(C(=O)N2CCC3(CC2)CC3CNC(=O)c2cc3ccncc3o2)cc1 (centres unmarked) [Example 84, N-[[6-[4-(methanesulfonamido)benzoyl]-6-azaspiro[2.5]octan-2-yl]methyl]furo[2,3-c]pyridine-2-carboxamide]
0.0142	O=C(NCC1CC12CCN(C(=O)c1ccc(N3CCS(=O)(=O)CC3)cc1)CC2)c1cc2ccncc2o1 (centres unmarked) [Example 85, N-[[6-[4-(1,1-dioxo-1,4-thiazinan-4-yl)benzoyl]-6-azaspiro[2.5]octan-2-yl)methyl]furo[2,3-c]pyridine-2-carboxamide]
0.00453	CN1CCN(Cc2ccc(C(=O)N3CCC4(CC3)CC4CNC(=O)c3cc4ccncc4o3)cc2)CC1 (centres unmarked) [Example 86, N-[[6-[4-[(4-methylpiperazin-1-yl)methyl]benzoyl]-6-azaspiro[2.5]octan-2-yl]methyl]furo[2,3-c]pyridine-2-carboxamide]
2	CN1CCN(Cc2ccccc2C(=O)N2CCC3(CC2)CC3CNC(=O)c2cc3ccncc3o2)CC1 (centres unmarked) [Example 87, N-[[6-[2-[(4-methylpiperazin-1-yl)methyl]benzoyl]-6-azaspiro[2.5]octan-2-yl]methyl]furo[2,3-c]pyridine-2-carboxamide]
0.00977	CN1CCN(Cc2cccc(C(=O)N3CCC4(CC3)CC4CNC(=O)c3cc4ccncc4o3)c2)CC1 (centres unmarked) [Example 88, N-[[6-[3-[(4-methylpiperazin-1-yl)methyl]benzoyl]-6-azaspiro[2.5]octan-2-yl]methyl]furo[2,3-c]pyridine-2-carboxamide]
0.116	CN1CCN(CCC(=O)N2CCC3(CC2)CC3CNC(=O)c2cc3ccncc3o2)CC1 (centres unmarked) [Example 89, N-[[6-[3-(4-methylpiperazin-1-yl)propanoyl]-6-azaspiro[2.5]octan-2-yl]methyl]furo[2,3-c]pyridine-2-carboxamide]
0.183	CC(C)N1CC(C(=O)N2CCC3(CC2)CC3CNC(=O)c2cc3ccncc3o2)CC1=O (centres unmarked) [Example 90, N-[[6-(1-isopropyl-5-oxo-pyrrolidine-3-carbonyl)-6-azaspiro[2.5]octan-2-yl)methyl]furo[2,3-c]pyridine-2-carboxamide]
2	O=C1CN(CC(=O)N2CCC3(CC2)CC3CNC(=O)c2cc3ccncc3o2)CCN1 (centres unmarked) [Example 91, N-[[6-[2-(3-oxopiperazin-1-yl)acetyl]-6-azaspiro[2.5]octan-2-yl]methyl]furo[2,3-c]pyridine-2-carboxamide]
0.152	CS(=O)(=O)c1cccc(C(=O)N2CCC3(CC2)CC3CNC(=O)c2cc3ccncc3o2)c1 (centres unmarked) [Example 92, N-[[6-(3-methylsulfonylbenzoyl)-6-azaspiro[2.5]octan-2-yl]methyl]furo[2,3-c]pyridine-2-carboxamide]
0.878	CS(=O)(=O)c1ccc(C(=O)N2CCC3(CC2)CC3CNC(=O)c2cc3ccncc3o2)cc1 (centres unmarked) [Example 93, N-[[6-(4-methylsulfonylbenzoyl)-6-azaspiro[2.5]octan-2-yl]methyl]furo[2,3-c]pyridine-2-carboxamide]
0.437	NC(=O)Nc1ccc(C(=O)N2CCC3(CC2)CC3CNC(=O)c2cc3ccncc3o2)cc1 (centres unmarked) [Example 94, N-[[6-(4-ureidobenzoyl)-6-azaspiro[2.5]octan-2-yl]methyl]furo[2,3-c]pyridine-2-carboxamide]
2	CC(=O)N1CCN(CC(=O)N2CCC3(CC2)CC3CNC(=O)c2cc3ccncc3o2)CC1 (centres unmarked) [Example 95, N-[[6-[2-(4-acetylpiperazin-1-yl)acetyl]-6-azaspiro[2.5]octan-2-yl]methyl]furo[2,3-c]pyridine-2-carboxamide]
0.711	Cc1nnnn1Cc1ccc(C(=O)N2CCC3(CC2)CC3CNC(=O)c2cc3ccncc3o2)cc1 (centres unmarked) [Example 96, N-[[6-[4-[(5-methyltetrazol-1-yl]methyl]benzoyl]-6-azaspiro[2.5]octan-2-yl]methyl]furo[2,3-c]pyridine-2-carboxamide]
2	O=C(NCC1CC12CCN(C(=O)c1ccncc1)CC2)c1cc2ccncc2o1 (centres unmarked) [Example 97, N-[[6-(pyridine-4-carbonyl)-6-azaspiro[2.5]octan-2-yl]methyl]furo[2,3-c]pyridine-2-carboxamide]
2	O=C(NCC1CC12CCN(C(=O)c1ccccn1)CC2)c1cc2ccncc2o1 (centres unmarked) [Example 98, N-[[6-(pyridine-2-carbonyl)-6-azaspiro[2.5]octan-2-yl]methyl]furo[2,3-c]pyridine-2-carboxamide]
2	O=C(NCC1CC12CCN(C(=O)c1cocn1)CC2)c1cc2ccncc2o1 (centres unmarked) [Example 99, N-[[6-(oxazole-4-carbonyl)-6-azaspiro[2.5]octan-2-yl]methyl]furo[2,3-c]pyridine-2-carboxamide]
2	O=C(NCC1CC12CCN(C(=O)c1nc[nH]n1)CC2)c1cc2ccncc2o1 (centres unmarked) [Example 100, N-[[6-(1H-1,2,4-triazole-3-carbonyl)-6-azaspiro[2.5]octan-2-yl]methyl]furo[2,3-c]pyridine-2-carboxamide]
